Results published in US20100160335A1, “PYRIDAZINONE DERIVATIVE AND PDE INHIBITOR CONTAINING THE SAME AS ACTIVE INGREDIENT” (KYORIN PHARMACEUTICAL CO., LTD., priority 2007, published 2010).
Like-named read-outs stand apart in the source and are kept apart here.

Experiments:
PDE4Bcat = biological target: T1, PDE4Bcat (Homo sapiens, UniProt Q07343); test: Phosphodiesterase inhibitory activity, PDE4 ([3H]cAMP, recombinant enzyme); assay type: biochemical; settings: 30° C., 20 minutes, read-out: IC50(μmol/L) PDE4
T1 construct: made in house; host or cells: Sf9 insect cells (baculovirus, Bac-to-Bac / Gateway)
T1 sequence (Q07343 330-659 limits assumed): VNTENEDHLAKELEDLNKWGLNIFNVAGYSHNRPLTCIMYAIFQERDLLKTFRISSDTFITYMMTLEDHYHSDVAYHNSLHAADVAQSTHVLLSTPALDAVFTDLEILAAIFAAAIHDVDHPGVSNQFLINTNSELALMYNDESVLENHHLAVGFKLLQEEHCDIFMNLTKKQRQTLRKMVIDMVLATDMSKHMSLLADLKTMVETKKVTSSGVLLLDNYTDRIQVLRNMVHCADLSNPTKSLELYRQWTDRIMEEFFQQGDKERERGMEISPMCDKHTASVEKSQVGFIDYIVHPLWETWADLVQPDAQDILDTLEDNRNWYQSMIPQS

[1] = test system: LPS acute inflammation model in rats; test: LPS acute inflammation model in rats (total leukocytes in BALF); assay type: in vivo; settings: BALF 3 hours after LPS; for Inhibition rate (total number of leukocytes in BALF): rat; for inhibition in vivo at 1 mg/kg: Rattus norvegicus, Leukocyte, po, 3 h, read-out: Inhibition rate (total number of leukocytes in BALF)
Method: 1 mg/kg of the compound was orally administered to rat one hour before inhalation of a lipopolysaccharide from E. coli serotype 055:B5 (LPS), and the rat was made to inhale 50 mL of the LPS solution nebulized using a nebulizer for 30 minutes. Then, 3 hours after the LPS inhalation, the rat was euthanized with 20% urethane (5 ml/rat, i.p.). 5 ml of physiological saline for bronchoalveolar lavage was injected into the bronchial tubes and alveoli through the airway, and the bronchial tubes and alveoli were washed three times using a 5 mL syringe. This operation was repeated twice, and the solution was collected as bronchoalveolar lavage fluid (BALF). The collected BALF was centrifuged at 1200 rpm and 4° C. for 10 minutes (Hirtachi; himac CR 5 DL). The pellet was re-suspended in 10 mL of a 0.1% bovine serum albumin-physiological saline, and an equivalent amount of Turk's solution was added thereto to stain leukocytes. The total number of leukocytes was counted under a microscope to calculate the inhibition rate. Further, the indications were as follows: inhibition rate≧90% (++) and 90%>inhibition rate≧50% (+). [ ] means the results of the drug administration after fasting overnight.

[2] = test system: histamine-induced bronchoconstriction in guinea pigs; test: Histamine-induced bronchoconstriction reaction in guinea pigs; assay type: in vivo; settings: Cavia porcellus, iv, 0.5 min, guinea pig, measured 30 seconds after administration, read-out: Inhibition rate (histamine-induced bronchoconstriction); for inhibition in vivo at 0.3 mg/kg: compound 0.3 mg/kg, i.v.; for inhibition in vivo at 0.1 mg/kg: compound 0.1 mg/kg, i.v. (values in [ ])
Method: Guinea pigs were anesthetized with pentobarbital (30 mg/kg, i.p.). A cannula for intravenous administration was inserted into the left external jugular vein, a cannula for collecting blood and measuring blood pressure was inserted into the right internal carotid artery, and a tracheal cannula was inserted into the trachea. The guinea pigs were maintained on artificial respiration under the conditions of 60 times/min and 10 mL/kg/stroke. The airflow from the side branch of the tracheal cannula was measured by a bronchospasm transducer (Ugo-Basile) and recorded on a computer via Power Lab (ADInstruments Japan). The guinea pigs were immobilized with gallamine (10 mg/kg, i.v.), and histamine (12.5 μg/kg, i.v.) was administered at 10-minute intervals. After the histamine-induced bronchoconstriction became stable, the compound (0.3 mg/kg, i.v.) was administered. The histamine-induced bronchoconstriction reaction was measured 30 seconds after the compound administration to examine the bronchoconstriction inhibitory activity of the compound. The bronchoconstriction was recorded as the airflow value, and the results were represented by the ratio of the maximum value of the histamine- induced airflow 30 seconds after the administration to the maximum value of the airflow before the administration. Also, the test compounds dissolved in DMSO were used. Further, the indications were as follows: inhibition rate≧90% (+++), 90%>inhibition rate≧80% (++), and 80%>inhibition rate≧70% (+). [ ] means the results in the case of 0.1 mg/kg, i.v.

[3] = biological target: T2, PDE3A catalytic domain (PDE3Acat) (Homo sapiens, UniProt Q14432); test: Phosphodiesterase inhibitory activity, PDE3 ([3H]cAMP, recombinant enzyme); assay type: biochemical; settings: 30° C., 20 minutes, read-out: IC50(μmol/L) PDE3
T2 construct: made in house; host or cells: Sf9 insect cells (baculovirus, Bac-to-Bac / Gateway)
T2 sequence (Q14432 674-1093 limits assumed): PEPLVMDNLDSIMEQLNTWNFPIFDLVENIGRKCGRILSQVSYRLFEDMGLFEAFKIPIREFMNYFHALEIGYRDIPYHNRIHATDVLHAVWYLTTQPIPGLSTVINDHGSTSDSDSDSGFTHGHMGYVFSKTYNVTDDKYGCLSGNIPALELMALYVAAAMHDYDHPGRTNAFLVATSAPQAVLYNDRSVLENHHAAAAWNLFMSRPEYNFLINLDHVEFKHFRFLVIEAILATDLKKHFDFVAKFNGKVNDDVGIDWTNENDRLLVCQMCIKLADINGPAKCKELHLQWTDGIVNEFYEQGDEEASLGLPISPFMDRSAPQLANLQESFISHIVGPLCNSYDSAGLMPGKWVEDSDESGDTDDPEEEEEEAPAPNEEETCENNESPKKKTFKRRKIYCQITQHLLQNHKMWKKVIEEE

[4] = 1 mg/kg orally one hour before LPS inhalation
[5] = 1 mg/kg orally after fasting overnight (values in [ ]), one hour before LPS inhalation, 1 mg/kg
[6] = 1 mg/kg orally after fasting overnight (values in [ ]), one hour before LPS inhalation

SMILES | IC50 (PDE4Bcat) [µmol/L] | Inhibition rate (total number of leukocytes in BALF) [1, 4] | inhibition in vivo at 0.3 mg/kg [2] [%] | IC50 [3] [µmol/L] | Inhibition rate (total number of leukocytes in BALF) [1, 5] | inhibition in vivo at 1 mg/kg [1, 6] [%] | inhibition in vivo at 1 mg/kg [1, 4] [%] | inhibition in vivo at 0.1 mg/kg [2] [%]
CCc1ccc2c(C3=NN(CCCCOc4ccc(C5=NNC(=O)CC5C)cc4)C(=O)CC3C)ccc(OC)c2n1 (single isomer, unassigned) [Example 340, 6-(2-Ethyl-8-methoxyquinolin-5-yl)-5-methyl-2-[4-[4-(4-methyl-6-oxo-1,4,5,6-tetrahydropyridazin-3-yl)phenoxy]butyl]-4,5-dihydro-2H-pyridazin-3-one] | < 0.1 | + (90%>inhibition rate≧50% (+)) | ≥ 90 | < 0.1 | – | – | – | –
CCc1ccc2c(-c3ccc(=O)n(CCCCOc4ccc(C5=NNC(=O)CC5C)c(F)c4F)n3)ccc(OC)c2n1 (single isomer, unassigned; (+)) [Example 322, (+)-6-(2-ethyl-8-methoxyquinolin-5-yl)-2-[4-[2,3-difluoro-4-(4-methyl-6-oxo-1,4,5,6-tetrahydropyridazin-3-yl)phenoxy]butyl]-2H-pyridazin-3-one] | < 0.1 | – | – | < 0.1 | [+] (90%>inhibition rate≧50% (+)) | – | – | –
CCc1ccc2c(-c3ccc(=O)n(CCCCOc4ccc(C5=NNC(=O)CC5C)c(F)c4F)n3)ccc(OC)c2n1 (single isomer, unassigned; (-)) [Example 323, (−)-6-(2-ethyl-8-methoxyquinolin-5-yl)-2-[4-[2,3-difluoro-4-(4-methyl-6-oxo-1,4,5,6-tetrahydropyridazin-3-yl)phenoxy]butyl]-2H-pyridazin-3-one] | < 0.1 | – | 70 to 80 | < 0.1 | [++] (inhibition rate≧90% (++)) | – | – | –
COc1ccc(-c2ccc(=O)n(CCCCOc3ccc(C4=NNC(=O)CC4)c(F)c3F)n2)c2ccc(C)nc12 [Example 271, 2-[4-[2,3-Difluoro-4-(6-oxo-1,4,5,6-tetrahydropyridazin-3-yl)phenoxy]butyl]-6-(8-methoxy-2-methylquinolin-5-yl)-2H-pyridazin-3-one] | < 0.1 | – | ≥ 90 | < 0.1 | – | 50 to 90 | – | –
CCc1ccc2c(-c3ccc(=O)n(CCCCOc4ccc(C5=NNC(=O)CC5)c(F)c4F)n3)ccc(OC)c2n1 [Example 283, 6-(2-Ethyl-8-methoxyquinolin-5-yl)-2-[4-[2,3-difluoro-4-(6-oxo-1,4,5,6-tetrahydropyridazin-3-yl)phenoxy]butyl]-2H-pyridazin-3-one] | 0.1 to 1 | – | – | < 0.1 | – | ≥ 90 | – | –
CCc1ccc2c(-c3ccc(=O)n(CCCCOc4ccc(C5=NNC(=O)CC5C)c(F)c4F)n3)ccc(OC)c2n1 (stereo not drawn) [Example 289, 6-(2-Ethyl-8-methoxyquinolin-5-yl)-2-[4-[2,3-difluoro-4-(4-methyl-6-oxo-1,4,5,6-tetrahydropyridazin-3-yl)phenoxy]butyl]-2H-pyridazin-3-one] | < 0.1 | – | ≥ 90 | < 0.1 | – | – | 50 to 90 | –
CCc1ccc2c(C3=NN(CCCCOc4ccc(C5=NNC(=O)CC5)c(F)c4F)C(=O)CC3C)ccc(OC)c2n1 (stereo not drawn) [Example 299, 6-(2-Ethyl-8-methoxyquinolin-5-yl)-5-methyl-2-[4-[2,3-difluoro-4-(6-oxo-1,4,5,6-tetrahydropyridazin-3-yl)phenoxy]butyl]-4,5-dihydro-2H-pyridazin-3-one] | < 0.1 | – | – | < 0.1 | – | 50 to 90 | – | ≥ 90
CCc1ccc2c(C3=NN(CCCCOc4ccc(C5=NNC(=O)CC5C)cc4)C(=O)CC3C)ccc(OC)c2n1 (stereo not drawn) [Example 312, 6-(2-Ethyl-8-methoxyquinolin-5-yl)-5-methyl-2-[4-[4-(4-methyl-6-oxo-1,4,5,6-tetrahydropyridazin-3-yl)phenoxy]butyl]-4,5-dihydro-2H-pyridazin-3-one] | < 0.1 | – | – | 0.1 to 1 | – | – | 50 to 90 | 70 to 80
COc1ccc(C2=NN(CCCCOc3ccc(C4=NNC(=O)CC4C)cc3)C(=O)CC2C)c2[nH]c(C(F)(F)F)nc12 (stereo not drawn) [Example 314, 6-(4-Methoxy-2-trifluoromethyl-1H-benzimidazol-7-yl)-5-methyl-2-[4-[4-(4-methyl-6-oxo-1,4,5,6-tetrahydropyridazin-3-yl)phenoxy]butyl]-4,5-dihydro-2H-pyridazin-3-one] | < 0.1 | – | 80 to 90 | < 0.1 | – | – | 50 to 90 | –
COc1ccc(-c2ccc(=O)n(CCCCOc3ccc(C4=NNC(=O)CC4C)c(F)c3F)n2)c2cccnc12 (stereo not drawn) [Example 319, 2-[4-[2,3-Difluoro-4-(4-methyl-6-oxo-1,4,5,6-tetrahydropyridazin-3-yl)phenoxy]butyl]-6-(8-methoxyquinolin-5-yl)-2H-pyridazin-3-one] | 0.1 to 1 | – | – | < 0.1 | – | 50 to 90 | – | ≥ 90
COc1ccc(-c2ccc(=O)n(CCCCOc3ccc(C4=NNC(=O)CC4)c(F)c3F)n2)c2cccnc12 [Example 320, 2-[4-[2,3-Difluoro-4-(6-oxo-1,4,5,6-tetrahydropyridazin-3-yl)phenoxy]butyl]-6-(8-methoxyquinolin-5-yl)-2H-pyridazin-3-one] | < 0.1 | – | ≥ 90 | < 0.1 | – | 50 to 90 | – | –
